Measurements: patent US8846698B2, “Pyrrolo[2,3-d]pyrimidine tropomysin-related kinase inhibitors” (Pfizer Limited, priority 2011, dated 2014)

Target: TRKA (Homo sapiens (Human), UniProt P04629)
Assay: Isolated TRK enzyme assay (HTRF KinEASE-TK), TRKA
Format: biochemical
Conditions: read-out: Trka enzyme (IC50)

Sequence of TRKA (P04629 441-796): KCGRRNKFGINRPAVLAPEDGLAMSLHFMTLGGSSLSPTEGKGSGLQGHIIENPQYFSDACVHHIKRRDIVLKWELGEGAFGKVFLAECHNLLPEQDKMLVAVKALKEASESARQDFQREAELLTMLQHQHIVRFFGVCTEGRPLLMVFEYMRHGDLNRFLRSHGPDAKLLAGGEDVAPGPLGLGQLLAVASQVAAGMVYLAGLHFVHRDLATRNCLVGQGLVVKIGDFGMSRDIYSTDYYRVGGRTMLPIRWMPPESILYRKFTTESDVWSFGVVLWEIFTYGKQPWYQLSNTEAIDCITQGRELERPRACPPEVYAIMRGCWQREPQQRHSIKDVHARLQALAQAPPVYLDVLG

Compound | IC50 [nM]
CC1(n2cc(C(=O)c3cncc(NC(=O)Cc4cccc(C(F)(F)F)c4)c3)c3cncnc32)COC1 [Example 572, N-{5-[7-(3-Methyl-oxetan-3-yl)-7H-pyrrolo[2,3-d]pyrimidine-5-carbonyl]-pyridin-3-yl}-2-(3-trifluoromethyl-phenyl)-acetamide] | 9.5
CC1(n2cc(C(=O)c3cncc(NC(=O)Cc4ccc(C(F)(F)F)c(F)c4)c3)c3cncnc32)COC1 [Example 573, 2-(3-Fluoro-4-trifluoromethyl-phenyl)-N-{5-[7-(3-methyl-oxetan-3-yl)-7H-pyrrolo[2,3-d]pyrimidine-5-carbonyl]-pyridin-3-yl}-acetamide] | 17.9
CC1(n2cc(C(=O)c3cncc(NC(=O)c4cccc(C(F)(F)F)c4)c3)c3cncnc32)COC1 [Example 574, N-{5-[7-(3-Methyl-oxetan-3-yl)-7H-pyrrolo[2,3-d]pyrimidine-5-carbonyl]-pyridin-3-yl}-3-trifluoromethyl-benzamide] | 14.2
CC1(n2cc(C(=O)c3cncc(NC(=O)c4cccc(OC(F)(F)F)c4)c3)c3cncnc32)COC1 [Example 575, N-{5-[7-(3-Methyl-oxetan-3-yl)-7H-pyrrolo[2,3-d]pyrimidine-5-carbonyl]-pyridin-3-yl}-3-trifluoromethoxy-benzamide] | 3.09
CC(C)(CO)n1cc(C(=O)c2cncc(NC(=O)Cn3cc(C4CC4)cn3)c2)c2cnc(N)nc21 [Example 576, N-{5-[2-Amino-7-(2-hydroxy-1,1-dimethyl-ethyl)-7H-pyrrolo[2,3-d]pyrimidine-5-carbonyl]-pyridin-3-yl}-2-(4-cyclopropyl-pyrazol-1-yl)-acetamide] | 296
CC(C)(C)n1cc(C(=O)c2cncc(NC(=O)Cn3cc(C4CC4)cn3)c2)c2cnc(N)nc21 [Example 577, N-[5-(2-Amino-7-tert-butyl-7H-pyrrolo[2,3-d]pyrimidine-5-carbonyl)-pyridin-3-yl]-2-(4-cyclopropyl-pyrazol-1-yl)-acetamide] | 1.9
Nc1ncc2c(C(=O)c3cncc(NC(=O)Cc4ccc(F)cn4)c3)cn(C34CC(C3)C4)c2n1 [Example 578, N-[5-(2-Amino-7-bicyclo[1.1.1]pent-1-yl-7H-pyrrolo[2,3-d]pyrimidine-5-carbonyl)-pyridin-3-yl]-2-(5-fluoro-pyridin-2-yl)-acetamide] | 6.07
CS(=O)(=O)c1cccc(CC(=O)Nc2cncc(C(=O)c3cn(C45CC(C4)C5)c4nc(N)ncc34)c2)c1 [Example 579, N-[5-(2-Amino-7-bicyclo[1.1.1]pent-1-yl-7H-pyrrolo[2,3-d]pyrimidine-5-carbonyl)-pyridin-3-yl]-2-(3-methanesulfonyl-phenyl)-acetamide] | 8.11
Nc1ncc2c(C(=O)c3cncc(NC(=O)Cn4ccc(C(F)(F)F)n4)c3)cn(C34CC(C3)C4)c2n1 [Example 580, N-[5-(2-Amino-7-bicyclo[1.1.1]pent-1-yl-7H-pyrrolo[2,3-d]pyrimidine-5-carbonyl)-pyridin-3-yl]-2-(3-trifluoromethyl-pyrazol-1-yl)-acetamide] | 0.825
Nc1ncc2c(C(=O)c3cncc(NC(=O)Cn4cc(C(F)(F)F)nn4)c3)cn(C34CC(C3)C4)c2n1 [Example 581, N-[5-(2-Amino-7-bicyclo[1.1.1]pent-1-yl-7H-pyrrolo[2,3-d]pyrimidine-5-carbonyl)-pyridin-3-yl]-2-(4-trifluoromethyl-[1,2,3]triazol-1-yl)-acetamide] | 3.21
N#Cc1ccc(CC(=O)Nc2cncc(C(=O)c3cn(C45CC(C4)C5)c4nc(N)ncc34)c2)cc1 [Example 582, N-[5-(2-Amino-7-bicyclo[1.1.1]pent-1-yl-7H-pyrrolo[2,3-d]pyrimidine-5-carbonyl)-pyridin-3-yl]-2-(4-cyano-phenyl)-acetamide] | 9.79
N-(5-(7-(1,3-dihydroxy-2-methylpropan-2-yl)-7H-pyrrolo[2,3-d]pyrimidine-5-carbonyl)pyridin-3-yl)-2-(3-trifluoromethoxy)phenyl)acetamide [Example 262] | 32.3

Continued, values first:

IC50 [nM] | Compound
0.681 | Nc1ncc2c(C(=O)c3cncc(NC(=O)Cc4ccc(Cl)cn4)c3)cn(C34CC(C3)C4)c2n1 [Example 583, N-[5-(2-Amino-7-bicyclo[1.1.1]pent-1-yl-7H-pyrrolo[2,3-d]pyrimidine-5-carbonyl)-pyridin-3-yl]-2-(5-chloro-pyridin-2-yl)-acetamide]
581 | CC(C)n1cc(C(=O)c2c[nH]c(=O)c(NC(=O)Cc3ccc(C#N)cc3)c2)c2cncnc21 [Example 584, 2-(4-cyanophenyl)-N-(2-oxo-5-{[7-(propan-2-yl)-7H-pyrrolo[2,3-d]pyrimidin-5-yl]carbonyl}-1,2-dihydropyridin-3-yl)acetamide]
36.7 | CC(C)n1cc(C(=O)c2c[nH]c(=O)c(NC(=O)COc3ccccc3OC(F)(F)F)c2)c2cncnc21 [Example 585, N-(2-oxo-5-{[7-(propan-2-yl)-7H-pyrrolo[2,3-d]pyrimidin-5-yl]carbonyl}-1,2-dihydropyridin-3-yl)-2-[2-(trifluoromethoxy)phenoxy]acetamide]
1000 | CC(C)n1cc(C(=O)c2c[nH]c(=O)c(NC(=O)Cc3coc(C4CC4)n3)c2)c2cncnc21 [Example 586, 2-(2-cyclopropyl-1,3-oxazol-4-yl)-N-(2-oxo-5-{[7-(propan-2-yl)-7H-pyrrolo[2,3-d]pyrimidin-5-yl]carbonyl}-1,2-dihydropyridin-3-yl)acetamide]
20.5 | Cc1cc(C(F)(F)F)nn1CC(=O)Nc1cc(C(=O)c2cn(C(C)C)c3ncncc23)c[nH]c1=O [Example 587, 2-[5-methyl-3-(trifluoromethyl)-1H-pyrazol-1-yl]-N-(2-oxo-5-{[7-(propan-2-yl)-7H-pyrrolo[2,3-d]pyrimidin-5-yl]carbonyl}-1,2-dihydropyridin-3-yl)acetamide]
334 | CC(C)n1cc(C(=O)c2c[nH]c(=O)c(NC(=O)Cc3ccc4cccnc4c3)c2)c2cncnc21 [Example 588, N-(2-oxo-5-{[7-(propan-2-yl)-7H-pyrrolo[2,3-d]pyrimidin-5-yl]carbonyl}-1,2-dihydropyridin-3-yl)-2-(quinolin-7-yl)acetamide]
31.3 | CC(C)n1cc(C(=O)c2c[nH]c(=O)c(NC(=O)Cc3ccc(Cl)cc3)c2)c2cncnc21 [Example 589, 2-(4-chlorophenyl)-N-(2-oxo-5-{[7-(propan-2-yl)-7H-pyrrolo[2,3-d]pyrimidin-5-yl]carbonyl}-1,2-dihydropyridin-3-yl)acetamide]
71.2 | CC(C)n1cc(C(=O)c2c[nH]c(=O)c(NC(=O)Cc3ccc(Cl)cn3)c2)c2cncnc21 [Example 590, 2-(5-chloropyridin-2-yl)-N-(2-oxo-5-{[7-(propan-2-yl)-7H-pyrrolo[2,3-d]pyrimidin-5-yl]carbonyl}-1,2-dihydropyridin-3-yl)acetamide]
142 | CC(C)n1cc(C(=O)c2c[nH]c(=O)c(NC(=O)Cn3cc(C(F)(F)F)nn3)c2)c2cncnc21 [Example 591, N-(2-oxo-5-{[7-(propan-2-yl)-7H-pyrrolo[2,3-d]pyrimidin-5-yl]carbonyl}-1,2-dihydropyridin-3-yl)-2-[4-(trifluoromethyl)-1H-1,2,3-triazol-1-yl]acetamide]
